The values below are quoted from earlier work in PMC11949389 (Polish Journal of Microbiology, 2025).

In series [1] the test system is Klebsiella oxytoca. The conditions noted are these: ref Sayout et al. 2020.
Series [2] deals with Staphylococcus aureus. The following applies: for MIC: S. aureus; for MIC/Sensitivity: Staphylococcus aureus, ref Kwiatkowski et al. 2020, Sayout et al. 2020, Sousa Silveira et al. 2020, Macêdo et al. 2022, Noumi et al. 2023, Sharma et al. 2023.
Series [3] relates to Mupirocin-resistant Staphylococcus aureus. The conditions noted are these: ref Kwiatkowski et al. 2019.
The test system of series [4] is Methicillin-resistant Staphylococcus aureus. The following applies: in combination with penicillin G, MRSA isolates; ref Kwiatkowski et al. (2020).
Series [5] has as its system Salmonella spp. The conditions noted are these: ref Sayout et al. 2020.
Series [6] concerns Enterobacter cloacae. The following applies: ref Sayout et al. 2020.
The subject of series [7] is Klebsiella pneumoniae. The conditions noted are these: ref Sayout et al. 2020, de Souza et al. 2021, Kwiatkowski et al. 2022.
In series [8] the test system is Mupirocin-susceptible Staphylococcus aureus. The conditions noted are these: ref Kwiatkowski et al. 2019.
Series [9] deals with Acinetobacter baumannii. The conditions noted are these: for MIC/Sensitivity: ref Sayout et al. 2020.
The subject of series [10] is Enterobacter aerogenes. The conditions noted are these: ref Sayout et al. 2020.
The subject of series [11] is Vibrio anguillarum, and Vibrio harveyi. The conditions noted are these: ref Rossi et al. (2021).
Series [12] has as its system Escherichia coli.
The subject of series [13] is Vibrio anguillarum. The following applies: ref Rossi et al. 2021.
For series [14], the system named is Pseudomonas sp. The following applies: ref Caballero Gómez et al. 2022.
The subject of series [15] is Staphylococcus sp. The conditions noted are these: ref Caballero Gómez et al. 2022.
Series [16] has as its system Enterococcus sp. The following applies: ref Caballero Gómez et al. 2022.
Series [17] deals with Enterococcus, Pseudomonas, and Staphylococcus strains. The conditions noted are these: ref Caballero Gómez et al. (2022).
The subject of series [18] is Malassezia pachydermatis. The following applies: ref Schlemmer et al. 2019, Sim et al. 2019.
The test system of series [19] is Streptococcus suis. The following applies: ref de Aguiar et al. 2019.
For series [20], the system named is Vibrio harveyi. The conditions noted are these: ref Rossi et al. 2021.
Series [21] concerns Vancomycin-resistant Enterococcus (VRE). The following applies: vancomycin-resistant enterococci strains; ref Owen et al. (2019).
Series [22] relates to Vancomycin-sensitive Enterococcus (VSE).
For series [23], the system named is bacteria co-isolated with C. albicans. The following applies: ref Touil et al. (2020).
The test system of series [24] is Methicillin-susceptible Staphylococcus aureus. The conditions noted are these: ref Owen et al. 2019.
The subject of series [25] is Ciprofloxacin-resistant Escherichia coli. The conditions noted are these: resistant E. coli strains; ref Owen et al. (2019).
Series [26] has as its system amphotericin B-resistant C. albicans. The following applies: varying among Candida isolates; ref Touil et al. (2020).
Series [27] has as its system C. albicans and co-isolated bacteria. The conditions noted are these: carvacrol combined with cuminaldehyde; ref Touil et al. (2020).
Series [28] concerns Pseudomonas aeruginosa.
Series [29] concerns Ciprofloxacin-resistant Pseudomonas aeruginosa. The conditions noted are these: resistant P. aeruginosa strains; ref Owen et al. (2019).
Series [30] relates to Candida auris. The following applies: Candida auris; ref Shaban et al. 2020.
For series [31], the system named is Candida auris. The conditions noted are these: ref Shaban et al. 2020.
Series [32] relates to Candida albicans. The following applies: Candida albicans; ref Sharifzadeh et al. 2019; Iraji et al. 2020; Shaban et al. 2020; Stringaro et al. 2022; Biernasiuk et al. 2022.
Series [33] deals with Candida albicans. The conditions noted are these: ref Shaban et al. 2020.
Series [34] has as its system Salmonella Thyphimurium. The following applies: ref Giovagnoni et al. 2020.
Series [35] concerns Candida species. The conditions noted are these: ref Stringaro et al. (2022).
The subject of series [36] is Candida glabrata. The following applies: Candida glabrata; ref Sharifzadeh et al. 2019; Iraji et al. 2020; Biernasiuk et al. 2022; Stringaro et al. 2022.
The subject of series [37] is HIV-1. The following applies: HIV-1; ref Mediouni et al. (2020).
Series [38] concerns Candida krusei. The following applies: Candida krusei; ref Sharifzadeh et al. 2019; Iraji et al. 2020; Biernasiuk et al. 2022; Stringaro et al. 2022.
The subject of series [39] is Campylobacter jejuni. The conditions noted are these: for MIC/Sensitivity: Campylobacter jejuni, ref Šimunović et al. 2020; for MIC: ref Šimunović et al. (2020).
In series [40] the test system is TetK efflux pump. The conditions noted are these: S. aureus, ref Sousa Silveira et al. (2020).
For series [41], the system named is staphylococcal isolates. The following applies: ref Sim et al. 2019.
The subject of series [42] is Proteus mirabilis. The conditions noted are these: ref Sim et al. 2019.
Series [43] deals with Candida tropicalis. The following applies: Candida tropicalis; ref Iraji et al. 2020; Stringaro et al. 2022.
Series [44] concerns Salmonella Typhimurium. The conditions noted are these: ref Giovagnoni et al. (2020).
Series [45] relates to β-haemolytic Streptococcus spp. The conditions noted are these: ref Sim et al. 2019.
The subject of series [46] is Staphylococcus pseudintermedius. The following applies: Staphylococcus pseudintermedius; ref Sim et al. 2019.
Series [47] deals with Chikungunya virus (CHIKV). The following applies: ref Kumar et al. (2021).
Series [48] deals with Staphylococcus aureus. The conditions noted are these: ref Mastoor et al. 2022.

In brackets after ≈: the same amount, converted by molar mass. Where two headings read alike, the source gives them in different places.

As to `CC12CCC(CC1)C(C)(C)O2` [1,8-Cineole], the MIC/Sensitivity in [1] is 0.00563 mg/mL (≈ 0.0365 mM); in series [2] it was 0.00563 to 115.1 mg/mL; in series [3], 57.56 mg/mL (≈ 373 mM); in series [5], 0.0075 mg/mL (≈ 0.0486 mM); in [6] it was 0.00563 mg/mL (≈ 0.0365 mM); in [7] it was 0.01125 mg/mL (≈ 0.0729 mM). In addition, the MIC/Sensitivity in series [8] is 307 mg/mL (≈ 1990 mM); in series [9], 0.00563 mg/mL (≈ 0.0365 mM); in [10], 0.00281 mg/mL (≈ 0.0182 mM); in series [12] (Escherichia coli, ref Owen et al. 2019, Sayout et al. 2020, Noumi et al. 2023), 0.00281 mg/mL (≈ 0.0182 mM). Further, the MIC – broadly, the smallest concentration in the dilution series that meets the test's criterion for growth inhibition – in series [2] (ref Kwiatkowski et al. (2020)) was 28,800– 57,600 μg/ml. The FICI in series [4] is given as 0.1. Moreover, the “activity at the tested concentrations” value in series [11] is given as “no activity”.

On to `O=C/C=C/c1ccccc1` [Cinnamaldehyde], for which the MIC/Sensitivity in [13] is 555.75 mg/mL (≈ 4210 mM); in [14] it was 0.01 to 0.05 mg/mL; in series [15], 0.01 to 0.05 mg/mL; in series [16], 0.01 to 0.05 mg/mL; in series [18], 0.0025 to 0.64 mg/mL; in series [19] it was 0.15625 to 0.3125 mg/mL. For the same compound, the MIC/Sensitivity in series [20] was 278.616 mg/mL (≈ 2110 mM). The MIC in series [17] was 0.01 to 0.05 mg/mL; in [11] it was 0.94 to 7.5 mM.

On to `CC(C)c1ccc(C=O)cc1` [Cuminaldehyde], for which the MIC was 537.65 mM (≈ 79700 µg/mL) in series [21]; 134.41 mM (≈ 19900 µg/mL) in series [22] (vancomycin-susceptible enterococci (VSE), ref Owen et al. (2019)); 1,000–4,000 μg/ml in series [23]; 8.40 mM (≈ 1240 µg/mL) in series [25]; 2 to 4 mg/mL in series [26]; 2.10 mM (≈ 311 µg/mL) in series [12] (antibiotic-sensitive E. coli, ref Owen et al. (2019)). The MIC/Sensitivity in [24] was 4979.52 mg/mL (≈ 33600 mM). For the same compound, the MIC in combination in series [27] is listed as 500–2,000 μg/ml.

For `C=CC(C)(O)CCC=C(C)C` (centres unmarked) [Linalool], the MIC/Sensitivity in series [1] is 0.00144 mg/mL (≈ 0.00934 mM); in series [2] it was 0.00288 to 6.8 mg/mL; in series [3], 2.83 mg/mL (≈ 18.3 mM); in series [5] it was 0.00288 mg/mL (≈ 0.0187 mM); in series [6], 0.00192 mg/mL (≈ 0.0124 mM); in series [7], 0.00383 mg/mL (≈ 0.0248 mM). In addition, the MIC/Sensitivity was 6.8 mg/mL (≈ 44.1 mM) in series [8], 0.00144 mg/mL (≈ 0.00934 mM) in series [9] and 0.00144 mg/mL (≈ 0.00934 mM) in series [10]. For the same compound, the “reduction in vancomycin’s MIC” value in series [22] (binary combinations with vancomycin, VSE, ref Owen et al. (2020)) was “four to eight-fold reduction”. Further, the “activity at the tested concentrations” value in [11] is “no activity”. The MIC was 228.20 mM (≈ 35200 µg/mL) in series [28] (antibiotic-sensitive P. aeruginosa, ref Owen et al. (2019)) and 912.90 mM (≈ 141000 µg/mL) in series [29].

Turning to `C=CCc1ccc(OC)c(OC)c1` [Methyl eugenol], the MIC/Sensitivity in series [30] and in series [32] was 1.25 mg/mL (≈ 7.01 mM) each time. Besides, the Mechanisms of action entry in [31] was “• Reduced proteinase production and host cell adherence”; in [33], “• Reduced proteinase production”.

As to `Cc1ccc(C(C)C)c(O)c1` [Thymol], the Mechanisms of action entry in [34] is “• Anti-inflammatory effects • Anti-oxidant properties • Enhanced epithelial barrier integrity • Reduction of bacterial translocation • Improved transepithelial electrical resistance • Inhibited bacterial growth”; in [31], “• Reduced proteinase production and host cell adherence”; in series [33], “• Reduced proteinase production”. Besides, the MIC/Sensitivity in series [14] is 0.1 to 0.3 mg/mL; in series [2], 0.072 to 0.8 mg/mL; in series [30], 0.312 mg/mL (≈ 2.08 mM); in series [15] it was 0.2 to 0.4 mg/mL; in [16], 0.2 to 0.45 mg/mL; in series [36] it was 0.39 mg/mL (≈ 2.6 mM). Moreover, the MIC/Sensitivity in series [18] was 0.01 to 0.8 mg/mL; in [32], 0.195 to 0.625 mg/mL; in series [38], 0.39 mg/mL (≈ 2.6 mM); in series [39], 0.03125 mg/mL (≈ 0.208 mM); in [7] it was 0.78 mg/mL (≈ 5.19 mM); in [19], 0.15625 mg/mL (≈ 1.04 mM). Further, the MIC/Sensitivity in [42] is 0.2 mg/mL (≈ 1.33 mM); in [43], 0.39 mg/mL (≈ 2.6 mM); in [28] (Pseudomonas aeruginosa, ref Owen et al. 2019, Sim et al. 2019, Noumi et al. 2023), 0.4 to 0.8 mg/mL; in series [45] (β-haemolytic Streptococcus spp.), 0.2 to 0.4 mg/mL; in series [46] it was 0.1 to 0.2 mg/mL. Further, the MIC in series [2] (ref Sharma et al. (2023)) is 125 to 250 µg/mL; in [2] (ref Sousa Silveira et al. (2020)), 72 µg/mL (≈ 0.479 mM); in [30] it was 0.312 mg/mL (≈ 2.08 mM); in series [35], 0.195 to 0.39 mg/mL; in series [39], 0.03125 mg/mL (≈ 0.208 mM); in [11], 0.94 to 7.5 mM. The MIC in series [44] is 1.87 mM (≈ 281 µg/mL). Further, the IC50 (usually the concentration that inhibits the measured activity by half) in [37] was 25.2 µM. Moreover, the efflux pump inhibition result in series [40] is recorded as “did not act as efflux pump inhibitors”. Moreover, the MIC90 (in general, the lowest concentration that inhibits either 90% of growth or 90% of the strains tested, depending on the study) is 0.146 to 0.2 mg/mL in series [41]; 0.2 to 0.292 mg/mL in series [42]; 0.8 mg/mL (≈ 5.33 mM) in series [28] (P. aeruginosa, ref Sim et al. 2019); 0.292 to 0.4 mg/mL in [45] (β-hemolytic Streptococcus). Besides, the FICI in [9] (combined with ciprofloxacin, ref Aleksic Sabo et al. (2021)) is on record as 0.25–0.32.

Take `CC1=CC(=O)C(C(C)C)=CC1=O` [Thymoquinone]: the concentration giving a half-maximal response (EC50) (commonly the concentration that produces a half-maximal response) in series [47] (CHIKV replication) is 4.48 µM. The “reduction of CHIKV titer” value in [47] (plaque reduction assay, 20 μM) is reported as “over 90%”. Also, in series [39], the MIC/Sensitivity is 0.03125 mg/mL (≈ 0.19 mM) and the MIC was 0.03125 mg/mL (≈ 0.19 mM).

As for `O=CC(Br)=Cc1ccccc1` [α-Bromo-trans-cinnamaldehyde], the Mechanisms of action entry in [48] is “• Gene expression reduction linked to intracellular adhesion”.
